PubChem BioAssay AID1259407 (Chemical Carcinogenesis Research Information System (CCRIS), 2018)
Calls of active or inactive are those of the source. How the calls were made is not given here.

Test system: CCRIS mutagenicity, Ames/micronucleus/aberration tests
Experiment: CCRIS mutagenicity studies
[1] = Test System: AMES SALMONELLA TYPHIMURIUM, Strain/Indicator: TA98, Metabolic Activation: NONE, Method: PREINCUBATION
[2] = Test System: AMES SALMONELLA TYPHIMURIUM, Strain/Indicator: TA100, Metabolic Activation: NONE, Method: PREINCUBATION
[3] = Test System: AMES SALMONELLA TYPHIMURIUM, Strain/Indicator: TA1535, Metabolic Activation: NONE, Method: PREINCUBATION
[4] = Test System: AMES SALMONELLA TYPHIMURIUM, Strain/Indicator: TA1537, Metabolic Activation: NONE, Method: PREINCUBATION
[5] = Test System: AMES SALMONELLA TYPHIMURIUM, Strain/Indicator: TA97, Metabolic Activation: RAT, LIVER, S-9, AROCLOR 1254, Method: STANDARD PLATE
[6] = Test System: AMES SALMONELLA TYPHIMURIUM, Strain/Indicator: TA98, Metabolic Activation: NONE, Method: STANDARD PLATE
[7] = Test System: AMES SALMONELLA TYPHIMURIUM, Strain/Indicator: TA98, Metabolic Activation: RAT, LIVER, S-9, AROCLOR 1254, Method: STANDARD PLATE
[8] = Test System: AMES SALMONELLA TYPHIMURIUM, Strain/Indicator: TA100, Metabolic Activation: NONE, Method: STANDARD PLATE
[9] = Test System: AMES SALMONELLA TYPHIMURIUM, Strain/Indicator: TA100, Metabolic Activation: RAT, LIVER, S-9, AROCLOR 1254, Method: STANDARD PLATE
[10] = Test System: AMES SALMONELLA TYPHIMURIUM, Strain/Indicator: TA102, Metabolic Activation: RAT, LIVER, S-9, AROCLOR 1254, Method: STANDARD PLATE
[11] = Test System: AMES SALMONELLA TYPHIMURIUM, Strain/Indicator: TA1538, Metabolic Activation: NONE, Method: STANDARD PLATE
[12] = Test System: AMES SALMONELLA TYPHIMURIUM, Strain/Indicator: TA1538, Metabolic Activation: RAT, LIVER, S-9, AROCLOR 1254, Method: STANDARD PLATE

O=C1[O][Bi][O]c2ccccc21 was tested, and the mutagenic call (Test System: AMES SALMONELLA TYPHIMURIUM, Strain/Indicator: TA98, Metabolic Activation: HAMSTER, LIVER, S-9, AROCLOR 1254 (10%), Method: PREINCUBATION) was “inactive; negative”, the mutagenic call [1] was “inactive; negative” and the mutagenic call (Test System: AMES SALMONELLA TYPHIMURIUM, Strain/Indicator: TA98, Metabolic Activation: RAT, LIVER, S-9, AROCLOR 1254 (10%), Method: PREINCUBATION) was “inactive; negative”. The mutagenic call (Test System: AMES SALMONELLA TYPHIMURIUM, Strain/Indicator: TA100, Metabolic Activation: HAMSTER, LIVER, S-9, AROCLOR 1254 (10%), Method: PREINCUBATION) was “inactive; negative”, the mutagenic call [2] was “inactive; negative” and the mutagenic call (Test System: AMES SALMONELLA TYPHIMURIUM, Strain/Indicator: TA100, Metabolic Activation: RAT, LIVER, S-9, AROCLOR 1254 (10%), Method: PREINCUBATION) was “inactive; negative”. The mutagenic call (Test System: AMES SALMONELLA TYPHIMURIUM, Strain/Indicator: TA1535, Metabolic Activation: HAMSTER, LIVER, S-9, AROCLOR 1254 (10%), Method: PREINCUBATION) was “inactive; negative”, the mutagenic call [3] was “inactive; negative” and the mutagenic call (Test System: AMES SALMONELLA TYPHIMURIUM, Strain/Indicator: TA1535, Metabolic Activation: RAT, LIVER, S-9, AROCLOR 1254 (10%), Method: PREINCUBATION) was “inactive; negative”. The mutagenic call (Test System: AMES SALMONELLA TYPHIMURIUM, Strain/Indicator: TA1537, Metabolic Activation: HAMSTER, LIVER, S-9, AROCLOR 1254 (10%), Method: PREINCUBATION) was “inactive; negative”, the mutagenic call [4] was “inactive; negative” and the mutagenic call (Test System: AMES SALMONELLA TYPHIMURIUM, Strain/Indicator: TA1537, Metabolic Activation: RAT, LIVER, S-9, AROCLOR 1254 (10%), Method: PREINCUBATION) was “inactive; negative”.

For ClCc1ccccn1, the mutagenic call (Test System: AMES SALMONELLA TYPHIMURIUM, Strain/Indicator: TA97, Metabolic Activation: NONE, Method: STANDARD PLATE) was “inactive; negative”, the mutagenic call [5] was “inactive; negative” and the mutagenic call [6] was “inactive; negative”. The mutagenic call [7] was “inactive; negative”, the mutagenic call [8] was “active; positive” and the mutagenic call [9] was “active; positive”. The mutagenic call (Test System: AMES SALMONELLA TYPHIMURIUM, Strain/Indicator: TA102, Metabolic Activation: NONE, Method: STANDARD PLATE) was “inactive; negative”, the mutagenic call [10] was “inactive; negative” and the mutagenic call (Test System: CHINESE HAMSTER OVARY, Strain/Indicator: CHO-K1-BH4 (HGPRT)/6-THIOGUANINE, Metabolic Activation: NONE) was “active; positive”. The mutagenic call (Test System: CHINESE HAMSTER OVARY, Strain/Indicator: CHO-K1-BH4 (HGPRT)/6-THIOGUANINE, Metabolic Activation: S-9) was “inactive; negative”.

For CC(=O)CCN(C)N=O, the mutagenic call (Test System: CHINESE HAMSTER V-79, Strain/Indicator: V-79/OUABAIN, Metabolic Activation: HAMSTER, HEPATOCYTES, Method: CELL-MEDIATED) was “active; positive”.

In the case of CCCCOc1cc(N=Nc2ccc(N(CC)CC)cc2)ccc1N=Nc1c(S(=O)(=O)O)cc2ccc(N)cc2c1O, the mutagenic call [6] is reported as “inactive; negative”, the mutagenic call [7] is reported as “active; positive” and the mutagenic call [8] is reported as “inactive; negative”. The mutagenic call [9] was “inactive; negative”, the mutagenic call [11] was “inactive; negative” and the mutagenic call [12] was “active; positive”.

With Cc1ccc2c(c1)c(C)c1c3ccccc3nc-1n2C the mutagenic call [5] was “active; positive”, the mutagenic call [7] was “active; positive” and the mutagenic call [10] was “active; positive”.

In the case of CC(=O)Nc1ccc(Oc2ccc(N(OC(C)=O)C(C)=O)cc2)cc1, the mutagenic call (Test System: AMES SALMONELLA TYPHIMURIUM, Strain/Indicator: TA98(1,8-DNP6), Metabolic Activation: NONE, Method: PREINCUBATION) is reported as “active; positive”, the mutagenic call (Test System: AMES SALMONELLA TYPHIMURIUM, Strain/Indicator: TA98(1,8-DNP6), Metabolic Activation: RAT, LIVER, S-9, AROCLOR 1254, Method: PREINCUBATION) is reported as “active; positive” and the mutagenic call (Test System: AMES SALMONELLA TYPHIMURIUM, Strain/Indicator: TA98(NR), Metabolic Activation: NONE, Method: PREINCUBATION) is reported as “active; positive”. For the same compound, the mutagenic call (Test System: AMES SALMONELLA TYPHIMURIUM, Strain/Indicator: TA98(NR), Metabolic Activation: RAT, LIVER, S-9, AROCLOR 1254, Method: PREINCUBATION) was “active; positive”, the mutagenic call [1] was “active; positive” and the mutagenic call (Test System: AMES SALMONELLA TYPHIMURIUM, Strain/Indicator: TA98, Metabolic Activation: RAT, LIVER, S-9, AROCLOR 1254, Method: PREINCUBATION) was “active; positive”. The mutagenic call (Test System: AMES SALMONELLA TYPHIMURIUM, Strain/Indicator: TA100(NR), Metabolic Activation: NONE, Method: PREINCUBATION) was “active; positive”, the mutagenic call (Test System: AMES SALMONELLA TYPHIMURIUM, Strain/Indicator: TA100(NR), Metabolic Activation: RAT, LIVER, S-9, AROCLOR 1254, Method: PREINCUBATION) was “active; positive” and the mutagenic call [2] was “active; positive”. The mutagenic call (Test System: AMES SALMONELLA TYPHIMURIUM, Strain/Indicator: TA100, Metabolic Activation: RAT, LIVER, S-9, AROCLOR 1254, Method: PREINCUBATION) was “active; positive”.

With c1ccc2c(c1)-c1cc3ccccc3c3cc4c(c-2c13)CCCC4 the mutagenic call (Test System: AMES SALMONELLA TYPHIMURIUM, Strain/Indicator: TA100, Metabolic Activation: RAT, LIVER, S-9, 3-METHYLCHOLANTHRENE, Method: STANDARD PLATE) was “active; positive”.

CCCCCCCCCCCCCCCCCCO was tested, and the mutagenic call [6] was “inactive; negative”, the mutagenic call [7] was “inactive; negative” and the mutagenic call [8] was “inactive; negative”. For the same compound, the mutagenic call [9] was “inactive; negative”, the mutagenic call (Test System: AMES SALMONELLA TYPHIMURIUM, Strain/Indicator: TA1535, Metabolic Activation: NONE, Method: STANDARD PLATE) was “inactive; negative” and the mutagenic call (Test System: AMES SALMONELLA TYPHIMURIUM, Strain/Indicator: TA1535, Metabolic Activation: RAT, LIVER, S-9, AROCLOR 1254, Method: STANDARD PLATE) was “inactive; negative”. For the same compound, the mutagenic call (Test System: AMES SALMONELLA TYPHIMURIUM, Strain/Indicator: TA1537, Metabolic Activation: NONE, Method: STANDARD PLATE) was “inactive; negative”, the mutagenic call (Test System: AMES SALMONELLA TYPHIMURIUM, Strain/Indicator: TA1537, Metabolic Activation: RAT, LIVER, S-9, AROCLOR 1254, Method: STANDARD PLATE) was “inactive; negative” and the mutagenic call [11] was “inactive; negative”. For the same compound, the mutagenic call [12] was “inactive; negative”, the mutagenic call (Test System: E. COLI, Strain/Indicator: WP2, Metabolic Activation: NONE, Method: STANDARD PLATE) was “inactive; negative” and the mutagenic call (Test System: E. COLI, Strain/Indicator: WP2, Metabolic Activation: RAT, LIVER, S-9, AROCLOR 1254, Method: STANDARD PLATE) was “inactive; negative”.

For CC(C)=CCC/C(C)=C/C=C/C(C)=C/C=C/C(C)=C/C=C/C=C(C)/C=C/C=C(C)/C=C/C=C(\C)CCC=C(C)C, the mutagenic call [1] was “inactive; negative”, the mutagenic call (Test System: AMES SALMONELLA TYPHIMURIUM, Strain/Indicator: TA98, Metabolic Activation: RAT LIVER S-9, Method: PREINCUBATION) was “inactive; negative” and the mutagenic call [2] was “inactive; negative”. The mutagenic call (Test System: AMES SALMONELLA TYPHIMURIUM, Strain/Indicator: TA100, Metabolic Activation: RAT LIVER S-9, Method: PREINCUBATION) was “inactive; negative”, the mutagenic call [3] was “inactive; negative” and the mutagenic call (Test System: AMES SALMONELLA TYPHIMURIUM, Strain/Indicator: TA1535, Metabolic Activation: RAT LIVER S-9, Method: PREINCUBATION) was “inactive; negative”. The mutagenic call [4] was “inactive; negative”, the mutagenic call (Test System: AMES SALMONELLA TYPHIMURIUM, Strain/Indicator: TA1537, Metabolic Activation: RAT LIVER S-9, Method: PREINCUBATION) was “inactive; negative” and the mutagenic call (Test System: ESCHERICHIA COLI, Strain/Indicator: WP2 UVR A, Metabolic Activation: NONE, Method: PREINCUBATION) was “inactive; negative”. The mutagenic call (Test System: ESCHERICHIA COLI, Strain/Indicator: WP2 UVR A, Metabolic Activation: RAT LIVER S-9, Method: PREINCUBATION) was “inactive; negative”.
